Article PMC11012124, “Synthesis of Novel Triazine-Based Chalcones and 8,9-dihydro-7H-pyrimido[4,5-b][1,4]diazepines as Potential Leads in the Search of Anticancer, Antibacterial and Antifungal Agents” (International Journal of Molecular Sciences, 2024)

Experiments:
60 cancer cell lines = assay: NCI-60 one-dose screen (10 μM); format: cell-based; settings: Homo sapiens; one dose of 10 μM, mean over 60 cancer cell lines; read-out: Mean Growth Percent (MGP)
Source text: Additionally, the mean of the growth percentages (MGP) of each compound against all the 60 cancer cell lines is also reported, which is used as one of the selection criteria to continue with tests at five concentration doses.

CCRF-CEM = assay: cells; settings: Homo sapiens, 48 h; for CC50: read-out: LC50
HL-60(TB) = assay: cells; settings: Homo sapiens, HL-60, 48 h; for CC50: read-out: LC50
RPMI-8226 = assay: cells; settings: Homo sapiens, RPMI-8226, 48 h; for CC50: read-out: LC50
A549/ATCC = assay: cells; settings: Homo sapiens, A549, 48 h; for CC50: read-out: LC50
EKVX = assay: cells; settings: Homo sapiens, 48 h; for CC50: read-out: LC50
HOP-62 = assay: cells; settings: Homo sapiens, HOP-62, 48 h; for CC50: read-out: LC50
NCI-H226 = assay: cells; settings: Homo sapiens, NCI-H226, 48 h; for CC50: read-out: LC50
NCI-H23 = assay: cells; settings: Homo sapiens, NCI-H23, 48 h; for CC50: read-out: LC50
NCI-H322M = assay: cells; settings: Homo sapiens, 48 h; for CC50: read-out: LC50
NCI-H460 = assay: cells; settings: Homo sapiens, NCI-H460, 48 h; for CC50: read-out: LC50
COLO 205 = assay: cells; settings: Homo sapiens, COLO 205, 48 h; for CC50: read-out: LC50
HCT-116 = assay: cells; settings: Homo sapiens, HCT-116, 48 h; for CC50: read-out: LC50
HCT-15 = assay: cells; settings: Homo sapiens, HCT-15, 48 h; for CC50: read-out: LC50
KM12 = assay: cells; settings: Homo sapiens, KM12, 48 h; for CC50: read-out: LC50
SW-620 = assay: cells; settings: Homo sapiens, SW-620, 48 h; for CC50: read-out: LC50
SF-268 = assay: cells; settings: Homo sapiens, SF-268, 48 h; for CC50: read-out: LC50
SF-295 = assay: cells; settings: Homo sapiens, SF-295, 48 h; for CC50: read-out: LC50
SNB-19 = assay: cells; settings: Homo sapiens, SNB-19, 48 h; for CC50: read-out: LC50
SNB-75 = assay: cells; settings: Homo sapiens, SNB-75, 48 h; for CC50: read-out: LC50
U251 = assay: cells; settings: Homo sapiens, U-251, 48 h; for GI50: U251, 48 h; for CC50: read-out: LC50
MALME-3M = assay: cells; settings: Homo sapiens, 48 h; for CC50: read-out: LC50
M14 = assay: cells; settings: Homo sapiens, M14, 48 h; for CC50: read-out: LC50
MDA-MB-435 = assay: cells; settings: Homo sapiens, MDA-MB-435, 48 h; for CC50: read-out: LC50
SK-MEL-2 = assay: cells; settings: Homo sapiens, SK-MEL-2, 48 h; for CC50: read-out: LC50
SK-MEL-28 = assay: cells; settings: Homo sapiens, SK-MEL-28, 48 h; for CC50: read-out: LC50
SK-MEL-5 = assay: cells; settings: Homo sapiens, SK-MEL-5, 48 h; for CC50: read-out: LC50
UACC-257 = assay: cells; settings: Homo sapiens, UACC-257, 48 h; for CC50: read-out: LC50
IGROV1 = assay: cells; settings: Homo sapiens, IGROV-1, 48 h; for CC50: read-out: LC50
OVCAR-4 = assay: cells; settings: Homo sapiens, OVCAR-4, 48 h; for CC50: read-out: LC50
OVCAR-5 = assay: cells; settings: Homo sapiens, OVCAR-5, 48 h; for CC50: read-out: LC50
OVCAR-8 = assay: cells; settings: Homo sapiens, OVCAR-8, 48 h; for CC50: read-out: LC50
786-0 = assay: cells; settings: Homo sapiens, 786-0, 48 h; for CC50: read-out: LC50
ACHN = assay: cells; settings: Homo sapiens, 48 h; for CC50: read-out: LC50
SN12C = assay: cells; settings: Homo sapiens, 48 h; for CC50: read-out: LC50
UO-31 = assay: cells; settings: Homo sapiens, UO-31, 48 h; for CC50: read-out: LC50
BT-549 = assay: cells; settings: Homo sapiens, BT-549, 48 h; for CC50: read-out: LC50

CN(C)c1nc(NCCNS(=O)(=O)c2ccc(C(=O)/C=C/c3ccc(F)cc3)cc2)nc(Nc2ccc(F)cc2)n1 [24f]
activity at 10 µM (60 cancer cell lines): -70.5%
GI50 (CCRF-CEM): 3.42 µM
CC50 (CCRF-CEM): > 100 µM
GI50 (HL-60(TB)): 2.04 µM
CC50 (HL-60(TB)): 6.34 µM
GI50 (RPMI-8226): 2.42 µM
CC50 (RPMI-8226): 6.92 µM
GI50 (A549/ATCC): 3.41 µM
CC50 (A549/ATCC): 14.2 µM
GI50 (EKVX): 2.95 µM
CC50 (EKVX): 10.9 µM
GI50 (HOP-62): 8.39 µM
CC50 (HOP-62): 23.5 µM
GI50 (NCI-H226): 3.41 µM
CC50 (NCI-H226): 16.4 µM
GI50 (NCI-H23): 4.17 µM
CC50 (NCI-H23): 15.6 µM
GI50 (NCI-H322M): 4.24 µM
CC50 (NCI-H322M): 17.8 µM
GI50 (NCI-H460): 2.45 µM
CC50 (NCI-H460): 6.93 µM
GI50 (COLO 205): 2.38 µM
CC50 (COLO 205): 6.56 µM
GI50 (HCT-116): 1.6 µM
CC50 (HCT-116): 3.01 µM
GI50 (HCT-15): 1.99 µM
CC50 (HCT-15): 4.28 µM
GI50 (KM12): 2 µM
CC50 (KM12): 4.41 µM
GI50 (SW-620): 1.9 µM
CC50 (SW-620): 4.02 µM
GI50 (SF-268): 3.89 µM
CC50 (SF-268): 16.4 µM
GI50 (SF-295): 3.4 µM
CC50 (SF-295): 13 µM
GI50 (SNB-19): 4.58 µM
CC50 (SNB-19): 16.8 µM
GI50 (SNB-75): 2.88 µM
CC50 (SNB-75): 16 µM
GI50 (U251): 1.99 µM
CC50 (U251): 4.41 µM
GI50 (MALME-3M): 3.42 µM
CC50 (MALME-3M): 12.4 µM
GI50 (M14): 2.6 µM
CC50 (M14): 8.28 µM
GI50 (MDA-MB-435): 2.32 µM
CC50 (MDA-MB-435): 5.69 µM
GI50 (SK-MEL-2): 2.77 µM
CC50 (SK-MEL-2): 8.31 µM
GI50 (SK-MEL-28): 3.6 µM
CC50 (SK-MEL-28): 13.7 µM
GI50 (SK-MEL-5): 2.91 µM
CC50 (SK-MEL-5): 11.1 µM
GI50 (UACC-257): 3.61 µM
CC50 (UACC-257): 15.2 µM
GI50 (IGROV1): 4.27 µM
CC50 (IGROV1): 15 µM
GI50 (OVCAR-4): 3.68 µM
CC50 (OVCAR-4): 15.6 µM
GI50 (OVCAR-5): 3.39 µM
CC50 (OVCAR-5): 15 µM
GI50 (OVCAR-8): 3.42 µM
CC50 (OVCAR-8): 13.9 µM
GI50 (786-0): 2.56 µM
CC50 (786-0): 6.3 µM
GI50 (ACHN): 3.13 µM
CC50 (ACHN): 10.9 µM
GI50 (SN12C): 1.7 µM
CC50 (SN12C): 3.36 µM
GI50 (UO-31): 2.9 µM
CC50 (UO-31): 11.9 µM
GI50 (BT-549): 4.87 µM
CC50 (BT-549): 17.1 µM

COc1cc(/C=C/C(=O)c2cc(OC)c(OC)c(OC)c2)ccc1Oc1nc(Nc2ccc(F)cc2)nc(N(C)C)n1 [21d]
activity at 10 µM (60 cancer cell lines): -33.4%
GI50 (CCRF-CEM): 2.19 µM
CC50 (CCRF-CEM): > 100 µM
GI50 (HL-60(TB)): 2.21 µM
CC50 (HL-60(TB)): > 100 µM
GI50 (RPMI-8226): 0.751 µM
CC50 (RPMI-8226): > 100 µM
GI50 (A549/ATCC): 4.49 µM
CC50 (A549/ATCC): 54.7 µM
GI50 (EKVX): 2.15 µM
CC50 (EKVX): 31.1 µM
GI50 (HOP-62): 1.83 µM
CC50 (HOP-62): 8.22 µM
GI50 (NCI-H226): 1.44 µM
CC50 (NCI-H226): 7.24 µM
GI50 (NCI-H23): 1.63 µM
CC50 (NCI-H23): 8.08 µM
GI50 (NCI-H322M): 2.99 µM
CC50 (NCI-H322M): > 100 µM
GI50 (NCI-H460): 1.45 µM
CC50 (NCI-H460): 7.53 µM
GI50 (COLO 205): 4.45 µM
CC50 (COLO 205): 47.5 µM
GI50 (HCT-116): 1.4 µM
CC50 (HCT-116): 7.24 µM
GI50 (HCT-15): 1.18 µM
CC50 (HCT-15): 6.39 µM
GI50 (KM12): 3.63 µM
CC50 (KM12): > 100 µM
GI50 (SW-620): 1.55 µM
CC50 (SW-620): 6.89 µM
GI50 (SF-268): 3.43 µM
CC50 (SF-268): > 100 µM
GI50 (SF-295): 1.98 µM
CC50 (SF-295): 19.6 µM
GI50 (SNB-19): 1.86 µM
CC50 (SNB-19): 18.5 µM
GI50 (SNB-75): 2.54 µM
CC50 (SNB-75): 81.8 µM
GI50 (U251): 0.503 µM
CC50 (U251): 9.59 µM
GI50 (MALME-3M): 1.75 µM
CC50 (MALME-3M): 11.1 µM
GI50 (M14): 2.83 µM
CC50 (M14): 32.8 µM
GI50 (MDA-MB-435): 1.63 µM
CC50 (MDA-MB-435): 7.69 µM
GI50 (SK-MEL-2): 1.69 µM
CC50 (SK-MEL-2): 8.47 µM
GI50 (SK-MEL-28): 1.8 µM
CC50 (SK-MEL-28): 9.23 µM
GI50 (SK-MEL-5): 2.16 µM
CC50 (SK-MEL-5): 12.2 µM
GI50 (UACC-257): 2.83 µM
CC50 (UACC-257): > 100 µM
GI50 (IGROV1): 1.93 µM
CC50 (IGROV1): 12.2 µM
GI50 (OVCAR-4): 2.07 µM
CC50 (OVCAR-4): > 100 µM
GI50 (OVCAR-5): 1.48 µM
CC50 (OVCAR-5): 11.6 µM
GI50 (OVCAR-8): 1.55 µM
CC50 (OVCAR-8): > 100 µM
GI50 (786-0): 1.45 µM
CC50 (786-0): 7.19 µM
GI50 (ACHN): 2.3 µM
CC50 (ACHN): 50.6 µM
GI50 (SN12C): 1.23 µM
CC50 (SN12C): 6.04 µM
GI50 (UO-31): 1.12 µM
CC50 (UO-31): 4.96 µM
GI50 (BT-549): 1.56 µM
CC50 (BT-549): 6.56 µM
